Experiment: cn = amount concentration of the nth substance listed, in mol/dm3
Settings: 298.15 K, 101.3 kPa, Liquid, Taylor dispersion method

COC(=O)[C@@H](N)Cc1cnc[nH]1.Cl.Cl [methyl L-histidinate dihydrochloride] + O
Settings | binary diffusion coefficient [m2/s]
c1 = 0.001 | 1.05e-09
c1 = 0.005 | 1.01e-09
c1 = 0.01 | 9.82e-10
c1 = 0.02 | 9.6e-10
c1 = 0.05 | 9.21e-10
c1 = 0.1 | 8.61e-10

Reference: the NIST ThermoML archive (doi:10.1016/j.jct.2015.05.013)
